One data set concerns the target T1, MMP-13 catalytic domain (Homo sapiens, UniProt P45452).
T1 construct: use the catalytic domain of the MMP-13 enzyme, namely matrix metalloproteinase-13 catalytic domain
The experiment in a line: MMP-13 catalytic domain thiopeptolide hydrolysis inhibition (Biological Method 1). The conditions noted are these: HEPES pH 7.0, 22° C.; read-out: MMP-13CD IC50. It is filed as biochemical. The text has this: (§1) In general, the MMP inhibition assays measure the amount by which a test compound reduces the hydrolysis of a thiopeptolide substrate catalyzed by a matrix metalloproteinase enzyme. Such assays are described in detail by Ye et al., in Biochemistry, 1992;31(45):11231-11235, which is incorporated herein by reference.
Some of the particular methods described below use the catalytic domain of the MMP-13 enzyme, namely matrix metalloproteinase-13 catalytic domain (“MMP-13CD”), rather than the corresponding full-length enzyme, MMP-13. It has been shown previously by Ye Qi-Zhuang, Hupe D., and Johnson L. (Current Medicinal Chemistry, 1996;3:407-418) that inhibitor activity against a catalytic domain of an MMP is predictive of the inhibitor activity against the respective full-length MMP enzyme.
Thiopeptolide substrates show virtually no decomposition or hydrolysis at or below neutral pH in the absence of a matrix metalloproteinase enzyme. A typical thiopeptolide substrate commonly utilized for assays is Ac-Pro-Leu-Gly-thioester-Leu-Leu-Gly-OEt. A 100 μL assay mixture will contain 50 mM of N-2-hydroxyethylpiperazine-N′-2-ethanesulfonic acid buffer (“HEPES,” pH 7.0), 10 mM CaCl2, 100 μM thiopeptolide substrate, and 1 mM 5,5′-dithio-bis-(2-nitrobenzoic acid) (DTNB). The thiopeptolide substrate concentration may be varied, for example from 10 to 800 μM to obtain Km and Kcat values. The change in absorbance at 405 nm is monitored on a Thermo Max microplate reader (molecular Devices, Menlo Park, Calif.) at room temperature (22° C.). The calculation of the amount of hydrolysis of the thiopeptolide substrate is based on E412=13600 M^−1 cm^−1 for the DTNB-derived product 3-carboxy-4-nitrothiophenoxide. Assays are carried out with and without matrix metalloproteinase inhibitor compounds, and the amount of hydrolysis is compared for a determination of inhibitory activity of the test compounds. […]

In another data set the target is T2, MMP-7 full-length (Homo sapiens, UniProt P09237).
T2 construct: further screened with full-length MMP-2, full-length MMP-7, full-length MMP-9
T2 sequence (P09237 95-267): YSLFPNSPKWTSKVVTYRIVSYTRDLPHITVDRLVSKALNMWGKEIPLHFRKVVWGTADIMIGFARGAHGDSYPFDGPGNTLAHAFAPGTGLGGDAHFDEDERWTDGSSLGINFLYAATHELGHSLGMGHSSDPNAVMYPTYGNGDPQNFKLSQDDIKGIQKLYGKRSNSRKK
The data set can be described thus: MMP-7 full-length thiopeptolide hydrolysis inhibition. It is filed as biochemical. The conditions noted are these: read-out: MMP-7FL IC50.
Description: as §1
(§2) Thiopeptolide substrates show virtually no decomposition or hydrolysis at or below neutral pH in the absence of a matrix metalloproteinase enzyme. A typical thiopeptolide substrate commonly utilized for assays is Ac-Pro-Leu-Gly-thioester-Leu-Leu-Gly-OEt. A 100 μL assay mixture will contain 50 mM of N-2-hydroxyethylpiperazine-N′-2-ethanesulfonic acid buffer (“HEPES,” pH 7.0), 10 mM CaCl2, 100 μM thiopeptolide substrate, and 1 mM 5,5′-dithio-bis-(2-nitrobenzoic acid) (DTNB). The thiopeptolide substrate concentration may be varied, for example from 10 to 800 μM to obtain Km and Kcat values. The change in absorbance at 405 nm is monitored on a Thermo Max microplate reader (molecular Devices, Menlo Park, Calif.) at room temperature (22° C.). The calculation of the amount of hydrolysis of the thiopeptolide substrate is based on E412=13600 M^−1 cm^−1 for the DTNB-derived product 3-carboxy-4-nitrothiophenoxide. Assays are carried out with and without matrix metalloproteinase inhibitor compounds, and the amount of hydrolysis is compared for a determination of inhibitory activity of the test compounds.
(§3) Test compounds were evaluated at various concentrations in order to determine their respective IC50 values, the micromolar concentration of compound required to cause a 50% inhibition of catalytic activity of the respective enzyme.
(§4) The test described above for the inhibition of MMP-13 may also be adapted and used to determine the ability of the compounds of formula (I) to inhibit the matrix metalloproteases MMP-1, MMP-2, MMP-3, MMP-7, MMP-9, MMP-12, MMP-14, and MMP-17. […]

A further data set addresses T3, MMP-3 catalytic domain (Homo sapiens, UniProt P08254).
T3 construct: MMP-2 full-length, MMP-3 catalytic domain, MMP-7 full-length
The data set can be described thus: MMP-3 catalytic domain thiopeptolide hydrolysis inhibition. It is filed as biochemical. The settings on record: MES buffer pH 6.0; read-out: MMP-3CD IC50.
Description: as §1, §2, §3
The assay buffer used with MMP-3CD was 50 mM N-morpholinoethane sulfonate (“MES”) at pH 6.0 rather than the HEPES buffer at pH 7.0 described above.
as §4

Data set [1] in a line: PDS solubility (Chemical Method 1, UV-visible absorbance of saturated solution). The settings on record: thermodynamic from solid; pH 6.5 aqueous phosphate buffer, 5% glyme. It is filed as physicochemical. The method, then: Solubility of a test compound of the present invention refers to solubility of the compound in a solvent mixture containing ethylene glycol dimethylether (“glyme”) and pH 6.5 aqueous phosphate buffer. The solubility was determined by measuring ultraviolet-visible absorbance of a saturated solution of the compound and comparing the absorbance value to absorbance values obtained for four standard solutions of the compound having known concentrations plotted on a 4-point ultraviolet-visible standard curve. […]
The prepared 96-well plate was transferred to a 96-well ultraviolet-visible plate reader, and the wells were scanned over wavelengths of from 220 nm to 350 nm with a step size of 2 nm. The ultraviolet-visible data (i.e., data generated at the same wavelength) were electronically exported to a spreadsheet and absorbance data for the filtrate of the saturated solution measured at one wavelength (i.e., the data that had the best linear fit as calculated by the highest regression coefficient, typically 0.98 or higher) and the corresponding standards absorbance data measured at the same wavelength were plotted as a standard absorbance-concentration curve based on the Lambert-Beer law. […] The calculated solubility was expressed as in milligrams of test compound in milliliters of solvent. […]

The next data set deals with T4, MMP-1 full-length (Homo sapiens, UniProt P03956).
T4 construct: have been assayed with MMP-1 full-length, MMP-2 full-length
T4 sequence (P03956 100-469): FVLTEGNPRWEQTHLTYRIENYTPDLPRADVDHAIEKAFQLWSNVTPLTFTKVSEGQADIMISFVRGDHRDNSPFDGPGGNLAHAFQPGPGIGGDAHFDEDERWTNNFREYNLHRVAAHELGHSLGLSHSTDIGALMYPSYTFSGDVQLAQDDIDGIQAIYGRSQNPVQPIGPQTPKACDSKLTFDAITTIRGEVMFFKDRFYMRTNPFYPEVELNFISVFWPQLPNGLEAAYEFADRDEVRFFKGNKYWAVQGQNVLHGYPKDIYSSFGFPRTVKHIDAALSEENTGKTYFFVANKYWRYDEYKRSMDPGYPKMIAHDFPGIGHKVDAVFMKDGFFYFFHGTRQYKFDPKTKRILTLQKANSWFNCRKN
The experiment in a line: MMP-1 full-length thiopeptolide hydrolysis inhibition. It is filed as biochemical. The settings on record: read-out: MMP-1FL IC50.
Description: as §1, §2, §3, §4

In another data set the target is T5, MMP-12 catalytic domain (Homo sapiens, UniProt P39900).
T5 construct: MMP-9 full-length, MMP-12 catalytic domain, and MMP-14 catalytic domain
The data set can be described thus: MMP-12 catalytic domain thiopeptolide hydrolysis inhibition. The class given is biochemical. The settings on record: read-out: MMP-12CD IC50.
Description: as §1, §2, §3, §4

The target in another data set is T6, MMP-14 catalytic domain (Homo sapiens, UniProt P50281).
T6 construct: MMP-9 full-length, MMP-12 catalytic domain, and MMP-14 catalytic domain
The data set can be described thus: MMP-14 catalytic domain thiopeptolide hydrolysis inhibition. It is filed as biochemical. The settings on record: read-out: MMP-14CD IC50.
Description: as §1, §2, §3, §4

The target of the next data set is T7, MMP-8 catalytic domain (Homo sapiens, UniProt P22894).
T7 construct: MMP-7 full-length, MMP-8 catalytic domain, MMP-9 full-length
The data set can be described thus: MMP-8 catalytic domain thiopeptolide hydrolysis inhibition. It is filed as biochemical. The conditions noted are these: read-out: MMP-8CD IC50.
Description: as §1, §2, §3
Certain compounds of formula (I) have been assayed with MMP-1 full-length, MMP-2 full-length, MMP-3 catalytic domain, MMP-7 full-length, MMP-8 catalytic domain, MMP-9 full-length, MMP-12 catalytic domain, and MMP-14 catalytic domain.

Another data set has as its target T8, MMP-9 full-length (Homo sapiens, UniProt P14780).
T8 construct: further screened with full-length MMP-2, full-length MMP-7, full-length MMP-9
The experiment in a line: MMP-9 full-length thiopeptolide hydrolysis inhibition. It is filed as biochemical. The settings on record: read-out: MMP-9FL IC50.
Description: as §1, §2, §3, §4

Another data set deals with T9, MMP-2 full-length (Homo sapiens, UniProt P08253).
T9 construct: further screened with full-length MMP-2, full-length MMP-7, full-length MMP-9
T9 sequence (P08253 110-660): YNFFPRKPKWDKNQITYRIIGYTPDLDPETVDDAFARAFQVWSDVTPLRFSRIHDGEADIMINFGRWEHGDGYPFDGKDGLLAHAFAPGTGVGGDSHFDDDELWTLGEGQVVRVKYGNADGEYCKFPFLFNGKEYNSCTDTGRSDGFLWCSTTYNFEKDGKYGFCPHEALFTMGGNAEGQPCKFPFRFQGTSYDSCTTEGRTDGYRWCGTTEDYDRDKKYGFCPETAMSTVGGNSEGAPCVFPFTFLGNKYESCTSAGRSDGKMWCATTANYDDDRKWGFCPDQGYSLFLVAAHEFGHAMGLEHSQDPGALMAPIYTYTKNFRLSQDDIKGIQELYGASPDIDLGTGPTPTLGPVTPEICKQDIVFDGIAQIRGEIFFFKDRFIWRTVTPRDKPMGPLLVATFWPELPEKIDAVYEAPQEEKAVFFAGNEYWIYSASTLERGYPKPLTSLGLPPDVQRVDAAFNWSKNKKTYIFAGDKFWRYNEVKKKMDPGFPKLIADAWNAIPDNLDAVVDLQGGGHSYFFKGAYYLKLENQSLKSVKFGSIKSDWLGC
The data set can be described thus: MMP-2 full-length thiopeptolide hydrolysis inhibition. It is filed as biochemical. The settings on record: read-out: MMP-2FL IC50.
Description: as §1
Thiopeptolide substrates show virtually no decomposition or hydrolysis at or below neutral pH in the absence of a matrix metalloproteinase enzyme. A typical thiopeptolide substrate commonly utilized for assays is Ac-Pro-Leu-Gly-thioester-Leu-Leu-Gly-OEt. A 100 μL assay mixture will contain 50 mM of N-2-hydroxyethylpiperazine-N′-2-ethanesulfonic acid buffer (“HEPES,” pH 7.0), 10 mM CaCl2, 100 μM thiopeptolide substrate, and 1 mM 5,5′-dithio-bis-(2-nitrobenzoic acid) (DTNB). The thiopeptolide substrate concentration may be varied, for example from 10 to 800 μM to obtain Km and Kcat values. The change in absorbance at 405 nm is monitored on a Thermo Max microplate reader (molecular Devices, Menlo Park, Calif.) at room temperature (22° C.). The calculation of the amount of hydrolysis of the thiopeptolide substrate is based on E412=13600 M^−1 cm^−1 for the DTNB-derived product 3-carboxy-4-nitrothiophenoxide. […]

Values after ≈ are worked out from the molar mass of the structure shown. Values joined by “and” are separate entries in the source; they are usually repeats but may differ in a detail not shown here. Equal values may be shown once.

T3 sequence (P08254 100-272 limits assumed, species assumed): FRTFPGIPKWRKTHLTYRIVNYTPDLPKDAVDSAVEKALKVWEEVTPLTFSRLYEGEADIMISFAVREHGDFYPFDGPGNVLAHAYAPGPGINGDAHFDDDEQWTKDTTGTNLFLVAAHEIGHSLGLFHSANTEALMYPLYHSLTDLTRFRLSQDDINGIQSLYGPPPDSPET
T8 sequence (P14780 94-707, species assumed): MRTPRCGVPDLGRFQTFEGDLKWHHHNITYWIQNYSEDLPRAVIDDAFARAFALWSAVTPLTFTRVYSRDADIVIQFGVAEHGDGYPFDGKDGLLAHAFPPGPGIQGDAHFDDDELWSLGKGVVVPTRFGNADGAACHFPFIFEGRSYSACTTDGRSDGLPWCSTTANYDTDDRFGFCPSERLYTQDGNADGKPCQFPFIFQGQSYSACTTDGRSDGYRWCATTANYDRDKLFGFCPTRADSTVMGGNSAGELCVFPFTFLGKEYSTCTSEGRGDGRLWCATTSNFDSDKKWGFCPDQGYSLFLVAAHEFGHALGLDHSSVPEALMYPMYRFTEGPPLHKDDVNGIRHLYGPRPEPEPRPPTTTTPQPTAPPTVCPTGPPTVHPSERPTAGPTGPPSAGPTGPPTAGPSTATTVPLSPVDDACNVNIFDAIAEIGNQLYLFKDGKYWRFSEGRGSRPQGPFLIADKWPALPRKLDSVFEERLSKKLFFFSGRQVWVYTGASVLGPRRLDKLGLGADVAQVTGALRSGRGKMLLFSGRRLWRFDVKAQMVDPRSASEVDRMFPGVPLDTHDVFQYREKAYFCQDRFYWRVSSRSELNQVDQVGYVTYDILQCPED
T7 sequence (P22894 100-262 limits assumed, species assumed): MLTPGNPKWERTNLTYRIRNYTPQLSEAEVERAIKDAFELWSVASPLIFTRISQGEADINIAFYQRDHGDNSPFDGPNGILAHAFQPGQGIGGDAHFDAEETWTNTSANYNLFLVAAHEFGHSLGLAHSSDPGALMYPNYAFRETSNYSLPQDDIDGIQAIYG
T5 sequence (P39900 106-263 limits assumed, species assumed): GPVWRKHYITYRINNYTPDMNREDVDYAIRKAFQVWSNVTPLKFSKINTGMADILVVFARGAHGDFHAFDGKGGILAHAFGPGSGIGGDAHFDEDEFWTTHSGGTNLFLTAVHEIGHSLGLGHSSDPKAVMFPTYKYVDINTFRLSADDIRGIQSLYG

Usually IC50 stands for the concentration that inhibits the measured activity by half. The solubility is the dissolved amount per volume that the medium holds. A high value points to a readily soluble substance. On to `Cc1cc(C(F)CCc2ccc(C(=O)O)cc2)cc(C(=O)NCc2cccc(C(F)(F)F)c2)n1` (stereo not shown) [Example 1, 4-{3-fluoro-3-[2-methyl-6-(3-trifluoromethyl-benzylcarbamoyl)-pyridin-4-yl]-propyl}-benzoic acid], for which the half-maximal inhibitory concentration (IC50) is 0.028 µM and 0.039 µM on MMP-13 catalytic domain; 51 µM at MMP-7 full-length; 11 µM at MMP-3 catalytic domain; greater than 100 µM at MMP-1 full-length; greater than 100 µM on MMP-12 catalytic domain; 56 µM on MMP-14 catalytic domain. For the same compound, the half-inhibitory concentration (IC50) at MMP-8 catalytic domain is greater than 30 µM; on MMP-9 full-length, 51 µM. This compound registered a solubility in data set [1] of 27 µg/mL (≈ 56.9 µM).
Take `Cc1cc(C(F)(F)CCc2ccc(C(=O)O)cc2)cc(C(=O)NCc2cccc(C(F)(F)F)c2)n1.O=C(O)C(F)(F)F` [Example 2, 4-{3,3-difluoro-3-[2-methyl-6-(3-trifluoromethyl-benzylcarbamoyl)-pyridin-4-yl]-propyl}-benzoic acid monotrifluoroacetic acid salt]: the IC50 was 0.087 µM and 0.11 µM at MMP-13 catalytic domain; 1.7 µM at MMP-7 full-length; greater than 100 µM on MMP-2 full-length; 13 µM on MMP-3 catalytic domain; greater than 100 µM at MMP-1 full-length; greater than 100 µM at MMP-12 catalytic domain. Further, the IC50 at MMP-14 catalytic domain was greater than 100 µM; at MMP-8 catalytic domain, greater than 30 µM; on MMP-9 full-length, 64 µM. In [1], this compound displayed a solubility of 4 µg/mL.
On to `Cc1cc(C(O)CCc2ccc(C(=O)O)cc2)cc(C(=O)NCc2cccc(C(F)(F)F)c2)n1` (stereo not shown) [Example 3, 4-{3-hydroxy-3-[2-methyl-6-(3-trifluoromethyl-benzylcarbamoyl)-pyridin-4-yl]-propyl}-benzoic acid], for which the IC50 on MMP-13 catalytic domain is 0.062 µM; at MMP-7 full-length, less than 10 µM; at MMP-2 full-length, 90 µM; at MMP-3 catalytic domain it was 6 µM; at MMP-1 full-length it was greater than 100 µM; on MMP-12 catalytic domain, greater than 100 µM. Moreover, the figures for the IC50 at MMP-14 catalytic domain, at MMP-8 catalytic domain and on MMP-9 full-length were greater than 100 µM, greater than 100 µM and less than 10 µM, respectively.

For the origin of these results see patent US20080161365A1, “Methylene Derivatives” (PFIZER INC., priority 2005, published 2008).
